For this experiment, the system named is P. falciparum 3D7 growth, pLDH absorbance. Briefly: P. falciparum 3D7 growth inhibition, dose response, strain 3D7 (AID 2305).

By IC50 is commonly meant the concentration needed to halve the response being measured. A low value points to inhibition by little substance.

For `COc1ccc(NC2=C(c3ccccc3)C(=O)c3ccccc32)cn1`, the IC50 stood at 710 nM.

Regarding `CCN(C1CCCCC1)S(=O)(=O)c1ccc(OC)c(N2CCN(C(=O)C(Cl)(Cl)Cl)CC2)c1`, the IC50 was determined as 630 nM.

In the case of `Cc1ccc(-c2cc(C(=O)Nc3ccc(S(=O)(=O)N(C)Cc4ccccc4)cc3)[nH]n2)c(O)c1`, the half-maximal inhibitory concentration (IC50) stood at 850 nM.

In the case of `O=C(Nc1ccccc1)N(Cc1ccccc1-c1cccc(CNCCc2ccccc2)c1)C1CCN(Cc2ccccc2)CC1`, the IC50 came to 180 nM.

As to `c1cc(CN2CCCCC2)cc(-c2ccc(-c3nc4ccccc4[nH]3)cc2)c1`, the IC50 was determined as 890 nM.

With `O=C(Cc1cccs1)NC(CCCN1CCC(Oc2cccc(Cl)c2)CC1)c1ccc(Cl)c(Cl)c1` (stereo not drawn), the concentration for half-maximal inhibition (IC50) turned out to be 250 nM.

For `CCNC(=NCc1ccccc1)NCCCCCCNC(=NCc1ccccc1)NCC`, the IC50 is 700 nM.

With `CCCS(=O)(=O)N1CCC(CO)(Cc2ccccc2C(F)(F)F)CC1`, the concentration for half-maximal inhibition (IC50) was 890 nM.

`Cc1cccc(Cn2c(C(N)=O)nn(-c3ccc([N+](=O)[O-])cc3C#N)c2=S)c1` registered an IC50 of 730 nM.

As for `CCC(CC)(CCC#N)CN(C[C@@H](O)[C@H](Cc1ccccc1)NC(=O)OC(C)(C)C)S(=O)(=O)c1ccc(OC)cc1`, the IC50 came to 1040 nM.

Consider `c1ccc(CN2CCC(NCc3ccc(-c4ccc(CNC5CCCC5)cc4)cc3)CC2)cc1`, for which the half-inhibitory concentration (IC50) amounted to 290 nM.

Molecule `O=C(Nc1cccc(F)c1)c1ccc(C(=O)NC2CCN(CC3CCCCC3)CC2)cc1` had an IC50 of 860 nM.

`CCNc1cc(C(=O)N[C@@H](Cc2ccccc2)[C@H](O)CNC2(CCC(C)C)CC2)cc(N2CCCCS2(=O)=O)c1` displayed an IC50 of 1080 nM.

In the case of `COc1cccc(Nc2nccc(-c3c(-c4cccc(NC(=O)c5c(F)cccc5F)c4)nn4ccccc34)n2)c1`, the IC50 was 180 nM.

`CNC(=O)Cc1ccc(C(=O)Nc2cccc(-c3cccc(-c4nc5c(C)cccc5[nH]4)c3)c2)cc1`: the IC50 came to 530 nM.

Molecule `O=C(NCCCCN1CCN(c2cccc3c2CCCC3)CC1)c1ccc(NC(=O)c2ccc(Cl)cc2)cc1` showed an IC50 of 450 nM.

Regarding `CCOC(=O)NC1=NC(C)(C)N(OCCCOc2ccc(C)cc2C)C(NC(=O)OCC)=N1`, the IC50 came to 130 nM.

As for `COc1ccc(CCN(C)CCCOc2ccc(NC(=O)c3cccc4c(=O)c5ccccc5[nH]c34)cc2)cc1OC`, the 50% inhibitory concentration (IC50) was found to be 910 nM.

In turn, `COc1cc(C)nc2ccc(NC(=O)Nc3ccc4nc(C)cc(OC)c4c3)cc12` registered a half-inhibitory concentration (IC50) of 550 nM.

The molecule `Cc1cccc2[nH]c(-c3ccc(-c4cccc(NC(=O)Nc5ccc(Cl)c(Cl)c5)c4)s3)nc12` yielded an IC50 of 590 nM.

The molecule `Cc1cc(F)ccc1-c1nc(Nc2ccncc2)c2ccn(C)c2n1` showed an IC50 of 940 nM.

With `COc1ccc2nc(C)cc(Nc3ccc(Oc4ccc(Br)c5ccccc45)c(Cl)c3)c2c1`, the concentration for half-maximal inhibition (IC50) was 280 nM.

Regarding `CCC(CC)(Cc1ccccc1)NC(=O)[C@H](CC1CCCCC1)Nc1ccc(C#N)c2ccccc12`, the concentration for half-maximal inhibition (IC50) was 630 nM.

As to `O=C(NC1CCN(c2ccc(F)cc2[N+](=O)[O-])CC1)c1cccs1`, the IC50 turned out to be 670 nM.

Regarding `COc1ccccc1CCNc1ncc(F)c(N[C@@H](Cc2ccccc2)C(=O)NCCc2ccccc2)n1`, the half-inhibitory concentration (IC50) is 960 nM.

In turn, `Fc1ccc(C(OCC2CCCN(Cc3cccc4cccnc34)C2)c2ccc(F)cc2)cc1` (stereo not drawn) gave an IC50 of 700 nM.

For `Cc1cc(NCCC(=O)Nc2ccccc2)nc(NCCc2ccccc2)n1`, the IC50 amounted to 850 nM.

As to `CC(C)(C)c1ccc(S(=O)(=O)Nc2ccccc2Cn2nc(N3CCNCC3)ccc2=O)cc1`, the IC50 was found to be 850 nM.

Regarding `Cc1cc(C)c(C)c(S(=O)(=O)N2CCCCC(c3ccc(F)c(F)c3)=N2)c1C`, the IC50 was 710 nM.

For `Fc1ccc2nc(-c3cccc(-c4ccc(CN5CCC(CCN6CCCCC6)CC5)cc4)c3)[nH]c2c1`, the IC50 is 140 nM.

`Cc1ccc(CC(C)NCC(O)c2cccc([N+](=O)[O-])c2)cc1` (stereo not drawn) returned a concentration for half-maximal inhibition (IC50) of 760 nM.

On to `CNc1ccc(CNCc2ccc(-c3ccc(-c4nc5ccc(F)cc5[nH]4)cc3)cc2)cc1`, for which the half-maximal inhibitory concentration (IC50) amounted to 210 nM.

In the case of `c1ccc2[nH]c(-c3ccc(-c4ccc(CNCCc5ccncc5)cc4)s3)nc2c1`, the half-maximal inhibitory concentration (IC50) turned out to be 160 nM.

On to `CCC1CN2CCc3c([nH]c4ccccc34)C2CC1CC1=NCCc2c1[nH]c1ccc(OC)cc21` (stereo not drawn), for which the IC50 is 640 nM.

The molecule `CCCN(CCC)S(=O)(=O)c1ccc(C(=O)Nc2nc3ccc(-c4cc(=O)[nH]c(Nc5ccccc5Cl)n4)cc3[nH]2)cc1` had a half-inhibitory concentration (IC50) of 590 nM.

Consider `Cc1cc(N[C@@H](Cc2ccccc2)C(=O)NCc2cccc(F)c2)nc(NCCc2cccnc2)n1`, for which the IC50 turned out to be 1340 nM.

Consider `CCOc1cccc(C2c3c(oc4ccccc4c3=O)C(=O)N2CCN(CC)CC)c1` (stereo not drawn), for which the IC50 amounted to 750 nM.

The molecule `O=C(C=Cc1ccc(Br)cc1)NC1CCC(CN2CCC(c3c[nH]c4ccccc34)CC2)CC1` (stereo not drawn) yielded an IC50 of 680 nM.

As for `CC(NC(C)c1cccc(Cl)c1)C(=O)Nc1cc(C(F)(F)F)ccc1N1CCOCC1` (stereo not drawn), the IC50 worked out at 1090 nM.

On to `O=C(C=Cc1ccc(Cl)c(Cl)c1)NCCCCCN1CCC(CCCNC(=O)/C=C/c2ccccc2)CC1`, for which the IC50 turned out to be 590 nM.

For `CCCCCCN1CCC(NCc2cccc3ccccc23)CC1`, the half-inhibitory concentration (IC50) turned out to be 810 nM.

In the case of `O=C(Nc1cccc(N2CCC(NCc3cnn(-c4cccc(F)c4)c3)CC2)c1)c1ccncc1`, the 50% inhibitory concentration (IC50) was found to be 1390 nM.

`CCOCCCn1c(=N)c(C(=O)NC(C)c2ccccc2)cc2c(=O)n3cccc(C)c3nc21` (stereo not drawn) had an IC50 of 1200 nM.

As for `CC1CCc2sc(-c3nnc(SC(C)C(=O)N4CCCC4)o3)cc2C1` (stereo not drawn), the IC50 stood at 880 nM.

`CC(C)c1sc(N2CCN(C)CC2)nc1C(=O)NCCc1ccc(Cl)c(Cl)c1`: the IC50 stood at 1050 nM.

For `O=C(Nc1ccc(-c2csc(-c3nc4ccccc4[nH]3)c2)cc1)Nc1ccc(Cl)c(Cl)c1`, the IC50 was 400 nM.

As for `Cn1cc(CN2CCC(CCOC(c3ccccc3)c3ccccc3)CC2)cn1`, the concentration for half-maximal inhibition (IC50) is 260 nM.

`CC(Cc1ccc(SCCSc2ccccc2)cc1)NCC(O)c1cccc(Cl)c1` (stereo not drawn) registered an IC50 of 370 nM.

The molecule `CC(C)CN(c1nc(C(=O)NNC(=O)[C@H](CC2CC2)NC(=O)c2cc3cc(OCCN4CCCCC4)ccc3o2)cs1)C1CC1` came in with a half-maximal inhibitory concentration (IC50) of 210 nM.

`O=c1cc(NCCCNCc2cc(Br)ccc2F)[nH]c2ccccc12` had an IC50 of 850 nM.

Molecule `Cc1ccc(CNC(=O)[C@H](Cc2ccccc2)Nc2ccnc(NCC3CCCCC3)n2)cc1` returned an IC50 of 1190 nM.

For `CC(C)(CNC(=O)C1CCN(Cc2ccoc2)CC1)c1nc(-c2ccc(Cl)c(O)c2)c(-c2ccncc2)[nH]1`, the half-maximal inhibitory concentration (IC50) worked out at 870 nM.

`CC(=O)Nc1ccc(Nc2cc(C)nc(Nc3ccc(NC(C)=O)cc3)n2)cc1` registered an IC50 of 890 nM.

The molecule `CC(C)Sc1nc(-c2ccccc2)nc2c1COC(C)(C)C2` displayed an IC50 of 860 nM.

The molecule `O=C(Nc1ccc2c(c1)OCO2)c1cc(-c2cccnc2)nc2ccc(Cl)cc12` displayed a half-maximal inhibitory concentration (IC50) of 520 nM.

`CNC(=O)Cc1ccc(C(=O)Nc2cccc(-c3ccc(-c4nc5c(C)cccc5[nH]4)s3)c2)cc1` returned a half-inhibitory concentration (IC50) of 630 nM.

`O=C(Nc1cccc(CN2CCCN(Cc3cccnc3)CC2)c1)c1ccc(Cl)c(Cl)c1` had an IC50 of 930 nM.

Turning to `CC(C(=O)N1CCCC1)N1CCN(S(=O)(=O)c2ccc(C(C)(C)C)cc2)CC1` (stereo not drawn), the 50% inhibitory concentration (IC50) was 640 nM.

`O=C(NC1CC1)c1cnc(N2CCC(OCc3ccccc3)CC2)c(Cl)c1`: the IC50 amounted to 1400 nM.

`O=C(Nc1cccc(-c2nn3ccccc3c2-c2ccnc(Nc3ccc(C(=O)N4CCOCC4)cc3)n2)c1)c1c(F)cccc1F` displayed an IC50 of 380 nM.

`c1cncc(-c2cc(N3CCCCC3)nc(-c3ccncc3)n2)c1` returned an IC50 of 770 nM.

Molecule `CC(=O)N1CCC(C(=O)Nc2ccc(-c3cccc(-c4nc5ccc(C(F)(F)F)cc5[nH]4)c3)cc2)CC1` had an IC50 of 240 nM.

In turn, `CCCOc1cccc(C(=O)N[C@@H](Cc2ccccc2)[C@H](O)CNCc2cccc(OC)c2)c1` yielded an IC50 of 740 nM.

`COc1ccc2nccc([C@@H](O)CN3CCC(NCCOc4ccccc4C#N)CC3)c2c1`: the IC50 was found to be 400 nM.

The molecule `COc1cc(C(=O)Nc2nc3ccccc3[nH]2)ccc1OCC(=O)Nc1cccc(C(F)(F)F)c1` gave an IC50 of 740 nM.

In turn, `COc1ccccc1NC(=O)c1cc(C(=O)c2cc(Cl)ccc2O)cn(-c2ccccc2OC)c1=O` returned an IC50 of 940 nM.

`C[C@@H]1CN(c2ccc3occ(C(=O)Nc4ccc(-c5ccncc5)c(Cl)c4)c3c2)C[C@H](C)N1C`: the half-inhibitory concentration (IC50) stood at 850 nM.

`COc1cc(NC(=O)c2cccc([N+](=O)[O-])c2)cc(S(=O)(=O)c2ccc(Cl)cc2)c1` gave an IC50 of 1130 nM.

The molecule `CN(CCc1ccccn1)Cc1ccc(-c2ccc(-c3nc4ccccc4[nH]3)s2)cc1` yielded an IC50 of 590 nM.

As for `COc1ccc(O)c(C(=O)c2cnc3c(c2)c(-c2ccc(F)cc2)c(C#N)c(=O)n3C)c1`, the IC50 is 790 nM.

`Cc1nc2ccc3ccc(CNc4ccc(C(=O)N[C@@H](CCC(=O)O)C(=O)N[C@@H](Cc5cccs5)C(=O)O)c(F)c4)cc3c2c(=O)[nH]1` registered an IC50 of 790 nM.

`CCC(C)CC(=O)Nc1ccc(OC)c(S(=O)(=O)N[C@@H]2CCN(C#N)C2)c1` (stereo partly drawn): the IC50 amounted to 1490 nM.

Take `CN(C)CCNC(=O)N1CCCN(c2ncnc3cc(-c4ccccc4)sc23)CC1`: the concentration for half-maximal inhibition (IC50) stood at 790 nM.

On to `CCOc1cc(CC)ccc1C1CCN(CCN2CCC(CNC(=O)c3ccc(-c4ccc(C#N)cc4)cc3)CC2)CC1`, for which the IC50 was found to be 710 nM.

In turn, `Cc1cc(NC(=O)NCCN2CCC(NS(=O)(=O)c3ccc(C(F)(F)F)cc3)C2)c2ccccc2n1` (stereo not drawn) registered a 50% inhibitory concentration (IC50) of 650 nM.

`CCN(CC)CCCC(C)Nc1c2ccccc2nc2c1ccc1ccccc12` (stereo not drawn) showed an IC50 of 1090 nM.

For the molecule `O=C(NC1CCC(CN2CCC(c3c[nH]c4ccccc34)CC2)CC1)c1csc(-c2cccc(Cl)c2Cl)n1` (stereo not drawn), the half-maximal inhibitory concentration (IC50) came to 1730 nM.

`COc1ccc2ccccc2c1CCCCN1CCN(CC(c2ccc(F)cc2)N2CCN(C3CCCC3)CC2)CC1` (stereo not drawn) yielded an IC50 of 770 nM.

Molecule `COCCN1CCC(N(CC2(O)CCN(c3ccc(C(F)(F)F)cc3)CC2)C(=O)Cn2c(SCc3cccc(F)c3F)cc(=O)c3ccccc32)CC1` gave an IC50 of 810 nM.

As to `CCC(O)c1ccc(Br)cc1NC(=O)c1cccc(Cl)c1` (stereo not drawn), the IC50 came out at 1020 nM.

Regarding `O=C(CCCCCNC(=O)c1ccc(O)c(-c2cccc(C(F)(F)F)c2)c1)NCCN1CCCCC1`, the IC50 came out at 890 nM.

In turn, `CNC(=C[N+](=O)[O-])NCCSCc1cc(C)c(CN(C)C)s1` gave a 50% inhibitory concentration (IC50) of 350 nM.

In turn, `O=[N+]([O-])c1cccc(S(=O)(=O)N2CCN(CC(O)COc3ccc(-c4ccccc4)cc3)CC2)c1` (stereo not drawn) yielded an IC50 of 1360 nM.
